Laboratory results from article PMC8286840, “Identifying SARS-CoV-2 antiviral compounds by screening for small molecule inhibitors of Nsp3 papain-like protease” (Biochemical Journal, 2021).
Where a name gives a salt, the structure may show the parent alone. Read-outs that look alike come from different tables or passages of the source.

What was measured:
[1] = biological target: T1, SARS-CoV-2 PLpro (nsp3 1564–1878) (Severe acute respiratory syndrome coronavirus 2, UniProt P0DTD1); test: biochemical; set-up: FRET-quenched peptide (Pro3) cleavage by PLpro, 10 min pre-incubation, slope over 20 min, normalised to no-compound control; settings: low concentration screen, read-out: % of control remaining
[2] = biological target: T1, SARS-CoV-2 PLpro (nsp3 1564–1878); test: biochemical; set-up: FRET-quenched peptide (Pro3) cleavage by PLpro, 10 min pre-incubation, slope over 20 min, normalised to no-compound control; settings: high concentration screen, read-out: % of control remaining

## NCCCCN [Putrescine dihydrochloride]
[1]; Well no.=1205
  remaining activity at 1.25 µM: 103%
[2]; Well no.=1205
  remaining activity at 3.75 µM: 102%

## O=S(=O)(NCc1ccccn1)c1ccc(Br)c2ccccc12 [Pyrabactin]
[1]; Well no.=5918
  remaining activity at 1.25 µM: 96.4%
[2]; Well no.=5918
  remaining activity at 3.75 µM: 95.8%

## NC(=O)c1cnccn1 [Pyrazinecarboxamide]
[1]; Well no.=1395
  remaining activity at 1.25 µM: 101%
[2]; Well no.=1395
  remaining activity at 3.75 µM: 99.2%

## CN(C)C(=O)Oc1ccc[n+](C)c1 [Pyridostigmine bromide]
[1]; Well no.=1499
  remaining activity at 1.25 µM: 89.1%
[2]; Well no.=1499
  remaining activity at 3.75 µM: 91.4%

## Cc1ncc(COP(=O)(O)O)c(C=O)c1O [Pyridoxal phosphate]
[1]; Well no.=6389
  remaining activity at 1.25 µM: 103%
[2]; Well no.=6389
  remaining activity at 3.75 µM: 101%

## Cc1ncc(CO)c(CO)c1O [Pyridoxine HCl]
[1]; Well no.=4935
  remaining activity at 1.25 µM: 97.7%
[2]; Well no.=4935
  remaining activity at 3.75 µM: 96.8%

## COc1ccc(CN(CCN(C)C)c2ccccn2)cc1 [Pyrilamine maleate]
[1]; Well no.=814
  remaining activity at 1.25 µM: 101%
[2]; Well no.=814
  remaining activity at 3.75 µM: 104%

## CCc1nc(N)nc(N)c1-c1ccc(Cl)cc1 [Pyrimethamine]
[1]; Well no.=4708
  remaining activity at 1.25 µM: 102%
[2]; Well no.=4708
  remaining activity at 3.75 µM: 97.2%

## Oc1ccccc1O [Pyrocatechol]
[1]; Well no.=190
  remaining activity at 1.25 µM: 101%
[2]; Well no.=190
  remaining activity at 3.75 µM: 98%

## Oc1cccc(O)c1O [Pyrogallol]
[1]; Well no.=6975
  remaining activity at 1.25 µM: 104%
[2]; Well no.=6975
  remaining activity at 3.75 µM: 105%

## O=C(O)c1ccc[nH]1 [Pyrrole-2-carboxylic acid]
[1]; Well no.=6405
  remaining activity at 1.25 µM: 93.2%
[2]; Well no.=6405
  remaining activity at 3.75 µM: 92.4%

## CC(=O)C(=O)O [Pyruvic acid]
[1]; Well no.=6683
  remaining activity at 1.25 µM: 92.9%
[2]; Well no.=6683
  remaining activity at 3.75 µM: 94.5%

## COC1=C[C@@H](C)[C@@H]2C[C@H]3OC(=O)C[C@H]4C(C)=C(OC)C(=O)[C@H]([C@@]2(C)C1=O)[C@@]34C [Quassin]
[1]; Well no.=3775
  remaining activity at 1.25 µM: 94.2%
[2]; Well no.=3775
  remaining activity at 3.75 µM: 101%

## C[C@@H]1C(=O)NC2=Nc3cccc(Cl)c3CN21 [Quazinone]
[1]; Well no.=1221
  remaining activity at 1.25 µM: 96.6%
[2]; Well no.=1221
  remaining activity at 3.75 µM: 95.5%

## O=c1c(O)c(-c2ccc(O)c(O)c2)oc2cc(O)c(O)c(O)c12 [Quercetagetin]
[1]; Well no.=2589
  remaining activity at 1.25 µM: 89%
[2]; Well no.=2589
  remaining activity at 3.75 µM: 92.1%

## O=c1c(O)c(-c2ccc(O)c(O)c2)oc2cc(O)cc(O)c12 [Quercetin dihydrate]
[1]; Well no.=1315
  remaining activity at 1.25 µM: 102%
[2]; Well no.=1315
  remaining activity at 3.75 µM: 104%

## O=c1c(O)c(-c2ccc(O)c(O)c2)oc2cc(O)cc(O)c12 [Quercetin]
[1]; Well no.=5716
  remaining activity at 1.25 µM: 91.5%
[2]; Well no.=5716
  remaining activity at 3.75 µM: 96%

## C[C@@H]1O[C@@H](Oc2c(-c3ccc(O)c(O)c3)oc3cc(O)cc(O)c3c2=O)[C@H](O)[C@H](O)[C@H]1O [Quercitrin]
[1]; Well no.=3112
  remaining activity at 1.25 µM: 96.4%
[2]; Well no.=3112
  remaining activity at 3.75 µM: 96.5%

## OCCOCCN1CCN(C2=Nc3ccccc3Sc3ccccc32)CC1 [Quetiapine (fumarate)]
[1]; Well no.=6237
  remaining activity at 1.25 µM: 98.2%
[2]; Well no.=6237
  remaining activity at 3.75 µM: 94.3%

## OCCOCCN1CCN(C2=Nc3ccccc3Sc3ccccc32)CC1 [Quetiapine Fumarate]
[1]; Well no.=1684
  remaining activity at 1.25 µM: 99.2%
[2]; Well no.=1684
  remaining activity at 3.75 µM: 100%

## OCCOCCN1CCN(C2=Nc3ccccc3Sc3ccccc32)CC1 [Quetiapine]
[1]; Well no.=6616
  remaining activity at 1.25 µM: 98.1%
[2]; Well no.=6616
  remaining activity at 3.75 µM: 98.6%

## CCN(CC)CCCC(C)Nc1c2ccc(Cl)cc2nc2ccc(OC)cc12 (stereo not drawn) [Quinacrine dihydrochloride]
[1]; Well no.=1173
  remaining activity at 1.25 µM: 96.3%
[2]; Well no.=1173
  remaining activity at 3.75 µM: 98.3%

## CCN(CC)CCCC(C)Nc1c2ccc(Cl)cc2nc2ccc(OC)cc12 (stereo not drawn) [Quinacrine]
[1]; Well no.=2187
  remaining activity at 1.25 µM: 96.6%
[2]; Well no.=2187
  remaining activity at 3.75 µM: 97.2%

## CCOC(=O)[C@H](CCc1ccccc1)N[C@@H](C)C(=O)N1Cc2ccccc2C[C@H]1C(=O)O [Quinapril (hydrochloride)]
[1]; Well no.=7828
  remaining activity at 1.25 µM: 96.3%
[2]; Well no.=7828
  remaining activity at 3.75 µM: 95%

## CCOC(=O)[C@H](CCc1ccccc1)N[C@@H](C)C(=O)N1Cc2ccccc2C[C@H]1C(=O)O [Quinapril]
[1]; Well no.=2189
  remaining activity at 1.25 µM: 98.1%
[2]; Well no.=2189
  remaining activity at 3.75 µM: 96.3%

## CCCN1CCC[C@@H]2Cc3nc(N)ncc3C[C@H]21 [Quinelorane dihydrochloride]
[1]; Well no.=1413
  remaining activity at 1.25 µM: 95.1%
[2]; Well no.=1413
  remaining activity at 3.75 µM: 98.2%

## C=C[C@H]1CN2CC[C@H]1C[C@@H]2[C@@H](O)c1ccnc2ccc(OC)cc12 [Quinidine sulfate]
[1]; Well no.=1363
  remaining activity at 1.25 µM: 101%
[2]; Well no.=1363
  remaining activity at 3.75 µM: 105%

## C=C[C@H]1CN2CC[C@H]1C[C@H]2[C@H](O)c1ccnc2ccc(OC)cc12 [Quinine sulfate]
[1]; Well no.=1459
  remaining activity at 1.25 µM: 98.4%
[2]; Well no.=1459
  remaining activity at 3.75 µM: 100%

## O=C(O)c1cccnc1C(=O)O [Quinolinic acid]
[1]; Well no.=1267
  remaining activity at 1.25 µM: 105%
[1]; Well no.=7265
  remaining activity at 1.25 µM: 96.1%
[2]; Well no.=1267
  remaining activity at 3.75 µM: 109%
[2]; Well no.=7265
  remaining activity at 3.75 µM: 94.7%

## c1ccc2nc(N3CCNCC3)ccc2c1 [Quipazine dimaleate]
[1]; Well no.=1411
  remaining activity at 1.25 µM: 99.5%
[2]; Well no.=1411
  remaining activity at 3.75 µM: 101%

## N[C@@H](Cn1oc(=O)[nH]c1=O)C(=O)O [Quisqualic acid]
[1]; Well no.=3535
  remaining activity at 1.25 µM: 101%
[2]; Well no.=3535
  remaining activity at 3.75 µM: 101%

## COc1cc(Nc2ncc(F)c(Nc3ccc4c(n3)NC(=O)C(C)(C)O4)n2)cc(OC)c1OC [R406 (free base)]
[1]; Well no.=4951
  remaining activity at 1.25 µM: 102%
[2]; Well no.=4951
  remaining activity at 3.75 µM: 102%

## COc1cc(Nc2ncc(F)c(Nc3ccc4c(n3)NC(=O)C(C)(C)O4)n2)cc(OC)c1OC [R406]
[1]; Well no.=4816
  remaining activity at 1.25 µM: 101%
[2]; Well no.=4816
  remaining activity at 3.75 µM: 99.1%

## COc1ccc(F)c(F)c1C(=O)c1cnc(NC2CCN(S(C)(=O)=O)CC2)nc1N [R547]
[1]; Well no.=4653
  remaining activity at 1.25 µM: 94.4%
[2]; Well no.=4653
  remaining activity at 3.75 µM: 93.6%

## CCCN1CCC[C@H](c2cccc(O)c2)C1 [R(+)-3PPP hydrochloride]
[1]; Well no.=1261
  remaining activity at 1.25 µM: 105%
[2]; Well no.=1261
  remaining activity at 3.75 µM: 107%

## C=CCN1CCc2c(cc(O)c(O)c2Br)[C@@H](c2ccccc2)C1 [R(+)-6-Bromo-APB hydrobromide]
[1]; Well no.=277
  remaining activity at 1.25 µM: 98.1%
[2]; Well no.=277
  remaining activity at 3.75 µM: 97.4%

## CC(C)NC[C@@H](O)COc1ccc(CC(N)=O)cc1 [R(+)-Atenolol]
[1]; Well no.=302
  remaining activity at 1.25 µM: 94.7%
[2]; Well no.=302
  remaining activity at 3.75 µM: 94.8%

## C[C@@]1(C2CCCC2)Cc2cc(OCC(=O)O)c(Cl)c(Cl)c2C1=O [R(+)-IAA-94]
[1]; Well no.=921
  remaining activity at 1.25 µM: 104%
[2]; Well no.=921
  remaining activity at 3.75 µM: 105%
